# Counter-ions that a name gives are not always drawn.
# Key:
# mouse colonic organoids = test: Mouse colonic organoids treated with CPT; format: cell-based; details: PUMAi 50 uM
# Protocol: Fresh mucosal scrapings from 10 cm of jejunum were washed in cold PBS, resuspended in 700 ul of RNA lysis buffer, and homogenized in a Dounce homogenizer. RNA was isolated using the Quick-RNA MiniPrep kit (Zymo Research) according to the manufacturer's instructions. Organoids were freed from Matrigel using Cell Recovery Solution (Corning), as described in, before RNA isolation. Complementary DNA was generated from 2 ug of total RNA from mice or ˜100 ng of total RNA from colonic organoids and was pooled from three mice or three wells of organoid culture per treatment group using SuperScript III reverse transcriptase (Invitrogen) and random primers. Gene expression was normalized to Gapdh. Representative results are shown, and similar results were obtained in at least three independent experiments. Details on mouse and human primers are found in Tables 1 and 2.
# Mouse crypt isolation, organoid development, and passage were done as previously described with minor modifications. In brief, the complete culture medium for mouse intestinal organoids was slightly modified as follows: advanced Dulbecco's modified Eagle medium (DMEM)/F12 (12634-010, Invitrogen) was supplemented with 100 units/ml penicillin/0.1 mg/ml streptomycin (Invitrogen), 2 mM GlutaMAX (ThermoFisher), 20% (vol/vol) FBS (S11150, ATLANTA Biologicals), and WRN-conditioned medium (50%, vol/vol). Freshly isolated crypts were cultured with the same medium plus 10 μM Y-27632 (Y0503 Sigma) and 100 μg/ml Primocin (ant-pm-1, InvivoGen). For CPT and PUMAi treatment, intestinal organoids were passaged and re-plated in 25 μL of Matrigel (356231, Corning) in 24-well plates 24 hours before treatment with CPT (0.5 μM, C9911, Sigma-Aldrich) and PUMAi (50 μM) for 24 hours. The CPT-containing medium was replaced with complete medium containing PUMAi (50 μM). Three groups (treatment control, CPT only, and CPT plus PUMAi) were set up. Organoids 100 μm or greater in diameter were enumerated on day 6 after CPT treatment. Similar results were obtained from at least three independent experiments with triplicate wells in each experiment.
# [1] = system: Lewis lung carcinoma (LLC) tumors; test: LLC tumor-bearing mice treated with CPT-11 six times over 2 weeks; format: in vivo, mouse
# Protocol: For tumor experiments, 4 million LLC cells [American Type Culture Collection (ATCC)] were injected into the flanks of WT and Puma KO mice and allowed to grow for 11 days. Mice were then treated with CPT-11 (200 mg/kg) three times per week for 2 weeks. PUMAi (10 mg/kg) or vehicle control was administered by intraperitoneal injection 2 hours before and 20 hours after each dose of CPT-11. Mice were sacrificed 4 hours after the final CPT-11 treatment.
# For tumor experiments, mice were treated with CPT-11 three times per week for two weeks. Mice receiving PUMAi were treated 2 hours before each dose of CPT-11 and 20 hours after. Mice were sacrificed four hours after the final CPT-11 treatment (FIG. 13A). Tumor volumes were measured with calipers and calculated as volume=(length x width2)/2. Mice were 7-9 weeks old, and roughly equal numbers of male and female animals were used. To account for variations in starting body weights, the values in FIGS. 3 and 4 are expressed as a percentage of the respective mouse weights at the time of the first CPT-11 treatment.
# Immediately after sacrifice, about 10-cm portion of the jejunum was removed and carefully rinsed with ice-cold saline. The tissue was opened longitudinally and tacked to a foam board for fixation overnight in 10% formalin. Tissues were then rolled up into “swiss rolls” and embedded in paraffin. For tumor analysis, flank tumors were removed, measured, and cut into pieces for either formalin fixation or flash freezing in a dry ice/ethanol bath. Tissue sections (5 um) were deparaffinized and rehydrated through graded ethanols. Histological analysis was performed by hematoxylin and eosin (H&E) staining.
# Average villus height was determined by measuring 40 to 50 villi from different locations of the small intestine, from at least three different animals per group, and reported as means A} SEM. Measurements were made from the top of the crypt to the tip of the villus using 100 Å˜H&E images and SPOT 5.1 Advanced software (Diagnostic Instruments Inc.).
# Neutrophil IF. Sections were prepared as described above. […] Sections were then incubated with AlexaFluor-594 goat antirat secondary antibodies (1:200; A11007; Invitrogen) for 1 hour at room temperature and counterstained with VectaShield plus DAPI.
# BIM/MCL-1 = target: T1, BIM/MCL-1 (Homo sapiens, UniProt O43521); test: Immunoprecipitation of HA-BIM / V5-Mcl-1 from 293 lysates; format: binding; details: 25 uM, 15 min, anti-HA immunoprecipitation, western blot
# T1 construct: expressed in transfected cells; host or cells: 293 cells; lysates used
# T1 sequence (O43521 whole entry, species assumed): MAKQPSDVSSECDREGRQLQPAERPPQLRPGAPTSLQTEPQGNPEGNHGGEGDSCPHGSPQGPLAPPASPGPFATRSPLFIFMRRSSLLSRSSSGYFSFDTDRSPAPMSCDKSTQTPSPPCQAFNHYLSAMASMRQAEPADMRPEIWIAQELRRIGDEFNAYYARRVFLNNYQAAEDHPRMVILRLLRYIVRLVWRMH
# Protocol: (FIG. 10A) Structure of the PUMA inhibitor lead compound (PUMAi). (FIG. 10B) Lysates of 293 cells transfected with individual plasmids for 24 hours were mixed in the indicated combinations. Lysates were incubated with vehicle or PUMA inhibitor (PUMAi, 25 μM) for 15 min before immunoprecipitation with an anti-HA antibody. The HA-bound proteins and input were analyzed by western blotting. (FIG. 10C) Lysates of 293 cells transfected with individual plasmids for 24 h were mixed in the indicated combinations. Lysates were incubated with vehicle or PUMA Inhibitor (PUMAi, 25 μM) for 15 min before immunoprecipitation with an anti-HA antibody. The HA-bound proteins and input were analyzed by western blotting. (FIG. 10D) Indicated colon cancer cell lines were treated with camptothecin (CPT, 500 nM) for 24 h. HCT 116 cells and PUMA KO HCT 116 cells have WT p53, others have no (KO) or mutant p53. Apoptosis was measured by nuclear fragmentation assay. Values are mean+SEM; n=3 independent experiments. (FIG. 10E) Cells were treated as in D for 24 h and analyzed by western blotting. Representative results are shown, and similar results were obtained in at least three independent experiments. […]
smiles,measurement,setting,value
"OCCN1CCN(CC(O)COc2ccc3ccccc3c2)CC1 (stereo not shown) [PUMAi, 1-[4-(2-hydroxyethyl)-1-piperazinyl]-3-(2-naphthyloxy)-2-propanol dihydrochloride]","CPT-induced activation of WNT and NOTCH targets (Lgr5, CD44, Olfm4)",mouse colonic organoids; 24 h after CPT,suppressed CPT-induced activation of WNT and NOTCH targets
same,CPT-induced growth suppression and caspase-3 activation,mouse colonic organoids; CPT 500 nM 24 h,strongly blocked
same,"CPT-11-induced weight loss, intestinal damage and lethality",[1]; PUMAi 10 mg/kg 2 h before and 20 h after each CPT-11 dose,highly resistant
same,tumor response to CPT-11,"[1]; PUMAi 10 mg/kg 2 h before and 20 h after each CPT-11 dose, vs vehicle group",comparable tumor response
same,% mice compieting treatment,"[1]; WT mice, LLC tumor experiments",100% (5/5)
same,grooming and physical activity,[1]; daily inspections throughout the study,improved grooming and physical activity
same,inhibition of BIM/MCL-1 interaction,BIM/MCL-1,not of BIM/MCL-1
